Source: patent US20070142302A1, “PEPTIDYL PRODRUGS THAT RESIST P-GLYCOPROTEIN MEDIATED DRUG EFFLUX” (The Curators of the University of Missouri, priority 2004, published 2007)
“Also recorded” adds a separate entry of the source. Square brackets hold non-standard residues; d marks the D form. Peptide text beside a SMILES is read from it. Sar = CNCC(=O)O

Key:
[1] = in vitro; conditions: dog, MDCK-MDR1
Method: (§1) Confluency was assessed by light microscopy.
(§2) Transport studies were conducted with MDCKII-MDR1 cell monolayers grown on 12-well Transwell® inserts (12 mm diameter). The medium was aspirated, and cell monolayers were washed three times (10 minutes per wash) with DPBS (pH 7.4). Volumes of the apical and basolateral chambers were 0.5 and 1.5 ml, respectively. Transport experiments were conducted for a period of 3 hours. Aliquots (200 μl) were withdrawn at predetermined time intervals, i.e., 15, 30, 45, 60, 90, 120, 150, and 180 minutes and replaced with fresh DPBS (pH 7.4) to maintain sink conditions. Samples were stored at −80° C. until further analysis. Experiments designed to investigate the effect of inhibitors involved preincubation of the cells with the inhibitor for a period of 30 minutes (inhibitor solution was added to both donor and receiver chambers) prior to the addition of the drug solution (also containing the inhibitor) to initiate the transport study. All transport experiments were performed at 37° C.
(§3) The HPLC system comprised an HP 1050 pump, an Agilent 1100 series fluorescence detector, and an Alcott autosampler (model 718 HPLC). A C(8) Luna column (250 mm×4.6 mm); Phenomenex, Torrance, Calif.) was employed in the analysis. The mobile phase consisted of 20 mM phosphate buffer (pH adjusted to 2.5) and 12% acetonitrile as the organic modifier. The parent drug and the derivative were detected with a fluorescence detector (λex=240 nm, λem=450 nm).
(§4) Linear regression analysis of the amounts transported as a function of time yielded the rate of transport across the cell monolayer (dM/dt). The rate divided by the cross-sectional are available for transport (A) generated the steady-state flux as shown in Equation 1. flux=(dM/dt)/A (Equation 1) Permeability was calculated by normalizing the steady-state flux to the donor concentration (Cd) of the drug according to Equation 2. Permeability=flux/Cd (Equation 2)
(§5) Transport studies with MDCKII-MDR1 cell monolayers were carried out as described in Example 7. […] Detection issues of the prodrug and/or parent drug in the acceptor chamber was considered for the selection of prodrug concentration. Aliquots (200 μL) were withdrawn at predetermined time intervals, i.e., 15, 30, 45, 60, 90, 120, 150, 180 min, respectively, and replaced with fresh DPBS, pH 7.4, to maintain sink conditions. Dilutions were taken into account for the calculations. Samples were stored at −80° C. until further analysis. All transport experiments were performed at 37° C.
(§6) The HPLC system was comprised of HP 1050 pump, Waters dual wavelength absorbance UV detector, and an Alcott auto sampler (model 718AL HPLC). A C(8) Luna column (250 mm×4.6 mm; Phenomenex, Torrance, Calif.) was employed for the separation of analytes. Mobile phase composed of acetonitrile:water:triethylamine (55:44:1%, v/v/v) and the pH was adjusted to 6.5 with o-phosphoric acid. Flow rate was maintained at 0.8 mL/min and detection wavelength was set at 240 nm.
(§7) Intact prodrug transported and breakdown products, formed during the transport study, were analyzed. Cumulative amount of drug transported (the sum of prodrug and regenerated parent drug) was plotted as a function of time. Apparent permeabilities (Papp) were determined from the linear portion of the cumulative amount versus time plot.

[2] = system: MDCKII-MDR1 cell monolayers; assay: in vitro
Method: as §1, §2, §3, §4, §5, §6, §7

[3] = system: peptide transporter; assay: Uptake of [^3H]Gly-Sar by MDCKII-MDR1 cells in the presence of drug/derivative; type: cell-based, dog; conditions: for Inhibition of [^3H]Gly-Sar uptake: MDCKII-MDR1 cells, quinidine and derivatives; for Uptake of [^3H]Gly-Sar: control 0.033
Method: Studies were performed to investigate whether derivatives of quinidine are substrates for a nutrient peptide transport system.
Unlabeled Gly-Sar at concentrations of 1 and 2 mM reduced the uptake of [^3H]Gly-Sar from 0.033 to 0.026 pmol/(min mg) (20%) and 0.019 pmol/(min mg) (41%), respectively (FIG. 9).

[4] = buffer
Method: Stability in DPBS was determined by incubating 200 μL prodrug solution with 800 μL DPBS with pH adjusted to 5 and 7.4. Slope of the line of “log percentage prodrug remaining versus time” plot was employed to calculate the degradation rate constants.

[5] = molecular target: P-gp (Homo sapiens, UniProt P08183); conditions: MDCKII-MDR1 cells
Text: Two different concentrations were employed to examine the effect of prodrug concentration on P-gp inhibition.

[6] = system: peptide transporter; assay: Uptake of [^3H]Gly-Sar by MDCKII-MDR1 cells in the presence of drug/derivative; type: cell-based, dog; conditions: for Effect on [^3H]Gly-Sar uptake: 100 μM SQV or prodrug; for Reduction of [^3H]Gly-Sar uptake: 100 μM prodrug; for Concentration dependence of inhibition of [^3H]Gly-Sar uptake: SQV prodrugs, different concentrations up to 100 μM
[7] = system: MDCKII-MDR1 cell homogenates; conditions: dog
Method: Confluent MDCKII-MDR1 cells were washed three times with Dulbecco's phosphate buffered saline (DPBS) (130 mM NaCl, 7.5 mM Na2HPO4, 1.5 mM KH2PO4, 0.5 mM MgSO4, 1 mM CaCl2, […] and 5 mM glucose). Cells were then isolated with the aid of a mechanical scrapper and suspended in two volumes of water and homogenized (Multipro variable speed homogenizer, DREMEL; Racine, Wis.). Suitable dilutions were made to achieve a final protein concentration of 0.25 mg/mL. Protein content was determined according to the method of Bradford (Bradford, Anal. Biochem., 72, 248 (1976)) with BioRad protein estimation kit.
An aliquot (800 μL) of the cell homogenate was incubated with 200 μL (30 μg/mL) prodrug solution at 37° C. in a shaking water bath (60 rpm). One hundred microlitres samples were withdrawn at predetermined time points and an equal volume of ice-cold acetonitrile:methanol (5:4) mixture was added to stop the enzymatic reaction. Samples were stored at −80° C. until further analysis.

[8] = system: P-gp; conditions: rabbit, in vivo
Method: Adult male New Zealand albino rabbits weighing between 2-2.5 kg were obtained from Myrtle's rabbitry, Thompson Station, Tenn. Throughout an experiment, the animals were kept under anesthesia with ketamine HCl (35 mg/kg) and xylazine (3.5 mg/kg) given intramuscularly every hour. Pupils were dilated with two drops of 1% tropicamide prior to implantation of microdialysis probes. Linear probes were implanted in the anterior chamber using 25-gauge needles. They were inserted across the cornea just above the corneal scleral limbus so that they traversed through the center of the anterior chamber to the opposite end of the cornea, as evidenced by microscopic examination. The sample-collecting end of the linear probe was inserted carefully into the beveled edge end of the needle. The needle was retracted slowly, leaving the probe in the dialyzing membrane in the middle of the anterior chamber. The outlets of the probes were fixed to prevent any disturbances during sample collection. The probes were perfused with isotonic IPBS (pH 7.4) at a flow rate of 2 μl/min using a CMA/100 microinjection pump. After probe implantation, the animals were allowed to stabilize for 2 hours prior to the initiation of any study. […] Samples obtained in the study were analyzed by a scintillation counter (LS 6500, Beckman Instruments, Inc., Fullerton, Calif.).

[9] = molecular target: P-gp (Oryctolagus cuniculus, UniProt Q6UUW3); conditions: rPCEC cells, equimolar concentrations
Method: Adult male New Zealand albino rabbits weighing between 2-2.5 kg were obtained from Myrtle's rabbitry, Thompson Station, Tenn. Rabbit corneas were excised and washed thoroughly with DPBS, blotted dry, and transferred to sterile culture dishes containing 0.5 ml trypsin (0.25%) or 1.2 U/ml protease (Dispase II, Roche Molecular Biochemical). The corneas were placed upside down (with the concave surface touching the protease solution) and incubated at 37° C. for 30 minutes. The epithelial cells were stripped off with gentle scraping from peripheral areas (1-1.5 mm from the limbus) to the center. Care was taken to peel only the epithelial layer and not the underlying stromal layer, because that would contaminate the epithelial cells with keratinocytes. Cells were washed with MEM (Life Technologies, Grand Island, N.Y.) and placed in culture dishes. After 12 hours (when most of the cells had attached to the bottom), the MEM was removed and fresh MEM supplemented with insulin (5 μg/ml), transferrin (5 μg/ml), sodium selinite (5 μg/ml), amphotericin B (0.25 μg/ml), polymyxin B sulfate (0.5 μg/ml), penicillin (100 U/ml), streptomycin (100 μg/ml), human recombinant epidermal growth factor (10 ng/ml), and bovine pituitary extract (50 μg/ml) were added. The medium was changed twice a week, and the cells were subcultured every 7 to 10 days (subculture ratio, 1:5). […]

[10] = system: P-gp (human MDR1); assay: in vitro; conditions: dog, MDCK-MDR1, pH 7.4
Method: as §1, §2, §3, §4, §5, §6, §7

Sequence of P-gp (Homo sapiens, UniProt P08183) (P08183 whole entry): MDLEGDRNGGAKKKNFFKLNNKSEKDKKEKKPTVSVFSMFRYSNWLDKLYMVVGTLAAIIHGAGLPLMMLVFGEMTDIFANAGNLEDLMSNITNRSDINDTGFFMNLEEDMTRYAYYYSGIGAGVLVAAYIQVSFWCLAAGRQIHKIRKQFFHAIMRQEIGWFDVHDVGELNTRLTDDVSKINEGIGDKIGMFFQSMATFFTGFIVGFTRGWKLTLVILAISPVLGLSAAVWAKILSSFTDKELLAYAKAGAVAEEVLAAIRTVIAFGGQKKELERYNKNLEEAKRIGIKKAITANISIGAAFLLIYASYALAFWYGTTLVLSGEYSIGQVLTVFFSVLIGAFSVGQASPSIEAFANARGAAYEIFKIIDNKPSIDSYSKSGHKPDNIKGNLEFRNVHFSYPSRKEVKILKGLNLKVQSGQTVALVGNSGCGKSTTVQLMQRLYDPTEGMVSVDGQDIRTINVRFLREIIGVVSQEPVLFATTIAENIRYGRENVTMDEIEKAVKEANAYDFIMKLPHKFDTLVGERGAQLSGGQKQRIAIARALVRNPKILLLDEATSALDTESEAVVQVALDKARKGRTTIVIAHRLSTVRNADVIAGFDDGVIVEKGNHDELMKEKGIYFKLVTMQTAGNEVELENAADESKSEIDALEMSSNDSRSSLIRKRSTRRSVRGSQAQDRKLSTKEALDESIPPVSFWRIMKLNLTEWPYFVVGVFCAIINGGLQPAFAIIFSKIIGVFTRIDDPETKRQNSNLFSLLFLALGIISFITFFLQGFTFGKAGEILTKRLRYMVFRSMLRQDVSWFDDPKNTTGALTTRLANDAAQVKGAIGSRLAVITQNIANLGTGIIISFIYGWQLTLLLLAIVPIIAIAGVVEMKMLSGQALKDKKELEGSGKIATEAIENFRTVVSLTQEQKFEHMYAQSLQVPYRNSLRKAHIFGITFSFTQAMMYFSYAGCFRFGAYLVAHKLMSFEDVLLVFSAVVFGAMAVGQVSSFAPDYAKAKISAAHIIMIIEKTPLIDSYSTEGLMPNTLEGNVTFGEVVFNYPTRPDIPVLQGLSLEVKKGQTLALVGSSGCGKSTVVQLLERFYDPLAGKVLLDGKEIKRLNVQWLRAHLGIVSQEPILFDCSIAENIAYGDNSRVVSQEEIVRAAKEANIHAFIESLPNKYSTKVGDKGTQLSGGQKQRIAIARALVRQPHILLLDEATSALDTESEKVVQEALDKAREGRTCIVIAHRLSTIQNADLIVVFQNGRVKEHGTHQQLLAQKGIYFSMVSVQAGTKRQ
Sequence of P-gp (Oryctolagus cuniculus, UniProt Q6UUW3) (Q6UUW3 1-1279): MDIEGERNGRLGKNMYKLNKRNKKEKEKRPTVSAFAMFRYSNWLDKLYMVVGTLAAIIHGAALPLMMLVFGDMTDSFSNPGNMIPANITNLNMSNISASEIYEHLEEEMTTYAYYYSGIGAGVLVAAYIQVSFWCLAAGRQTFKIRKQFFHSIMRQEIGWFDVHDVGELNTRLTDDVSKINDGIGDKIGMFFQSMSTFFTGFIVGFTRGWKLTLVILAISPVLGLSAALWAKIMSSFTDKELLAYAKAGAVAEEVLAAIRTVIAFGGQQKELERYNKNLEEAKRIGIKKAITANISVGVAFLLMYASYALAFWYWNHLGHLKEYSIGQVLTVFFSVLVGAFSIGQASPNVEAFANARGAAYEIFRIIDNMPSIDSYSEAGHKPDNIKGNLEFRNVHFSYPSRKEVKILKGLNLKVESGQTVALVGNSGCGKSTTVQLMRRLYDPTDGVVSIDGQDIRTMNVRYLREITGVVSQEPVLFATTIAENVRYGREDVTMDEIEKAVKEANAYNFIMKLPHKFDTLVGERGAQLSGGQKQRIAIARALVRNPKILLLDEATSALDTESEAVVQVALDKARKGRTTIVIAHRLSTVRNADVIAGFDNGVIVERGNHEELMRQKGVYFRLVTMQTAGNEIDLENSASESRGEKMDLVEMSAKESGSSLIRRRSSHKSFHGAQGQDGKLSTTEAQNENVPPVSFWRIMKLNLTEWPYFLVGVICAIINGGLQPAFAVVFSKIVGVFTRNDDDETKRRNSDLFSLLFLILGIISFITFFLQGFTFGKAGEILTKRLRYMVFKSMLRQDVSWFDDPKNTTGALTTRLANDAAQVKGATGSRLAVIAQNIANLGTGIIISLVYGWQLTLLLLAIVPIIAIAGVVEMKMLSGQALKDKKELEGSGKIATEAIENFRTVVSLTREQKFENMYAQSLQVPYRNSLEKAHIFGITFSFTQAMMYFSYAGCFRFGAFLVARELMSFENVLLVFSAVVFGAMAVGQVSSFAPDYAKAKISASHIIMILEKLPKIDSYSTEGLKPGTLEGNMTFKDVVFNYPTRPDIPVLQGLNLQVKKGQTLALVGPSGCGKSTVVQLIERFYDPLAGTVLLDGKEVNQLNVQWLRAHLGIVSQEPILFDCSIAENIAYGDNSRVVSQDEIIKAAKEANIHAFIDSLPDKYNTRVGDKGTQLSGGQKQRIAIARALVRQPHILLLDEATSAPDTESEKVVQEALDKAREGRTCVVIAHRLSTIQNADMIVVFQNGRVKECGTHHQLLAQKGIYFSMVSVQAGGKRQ

OC[C@@H](O)[C@@H](O)[C@H](O)[C@H](O)CO [[^14C]mannitol, mannitol, reference compound]
Papp [1]: < 0.2 ×10⁻⁶ cm/s
[^14C]mannitol transport across the cell monolayer ([2]; dog, MDCK-MDR1): < 0.5 %/h

C=CC1CN2CCC1CC2C(OC(=O)C(N)C(C)C)c1ccnc2ccc(OC)cc12 (centres unmarked) [Val-Q, Val-Quinidine]
Difference between AP-BL and BL-AP permeability ([2]; MDCK-MDR1): equivalent
Apparent permeability Papp AP-BL ([2]; MDCK-MDR1, pH 7.4): 5.13±0.49×10^−6 cm.s^−1
Apparent permeability Papp BL-AP ([2]; MDCK-MDR1, pH 7.4): 6.17±1.28×10^−6 cm.s^−1
Inhibition of [^3H]Gly-Sar uptake [3]: concentration dependent inhibition

CC(C)[C@H](NC(=O)CN)C(=O)O[C@H](CN1C[C@H]2CCCC[C@H]2C[C@H]1C(=O)NC(C)(C)C)[C@H](Cc1ccccc1)NC(=O)[C@H](CC(N)=O)NC(=O)c1ccc2ccccc2n1 [Gly-Val-SQV, Gly-Val-saquinavir]
Half-life (t1/2) in DPBS, pH 5 [4]: 34.5±0.85 h
Half-life (t1/2) in DPBS, pH 7.4 [4]: 13.1±0.33 h
Concentration at which the prodrug saturates P-gp [5]: 75 µM
Effect on [^3H]Gly-Sar uptake [6]: significantly decreased
Reduction of [^3H]Gly-Sar uptake [6]: 42%
Concentration dependence of inhibition of [^3H]Gly-Sar uptake [6]: concentration dependent inhibition
Efflux ratio (BL Papp/AP Papp) ([2]; MDCK-MDR1): 6
Half-life (t1/2) in MDCK-MDR1 cell homogenates [7]: 1.75 ± 0.11 h

C=C[C@H]1C[N@@]2CC[C@H]1C[C@@H]2[C@@H](O)c1ccnc2ccc(OC)cc12 [quinidine, reference compound]
Inhibition of the P-gp mediated efflux pump [8]: caused inhibition
Inhibitory effect on P-gp mediated efflux ([^3H]erythromycin uptake) [9]: high inhibitory effect
Papp A→B at 3 h, 10 μM [10]: 6.5 ×10⁻⁶ cm/s
Papp B→A at 3 h, 10 μM [10]: 18.3 ×10⁻⁶ cm/s
Difference between AP-BL and BL-AP permeability ([2]; MDCK-MDR1): three fold difference
Inhibition of [^3H]Gly-Sar uptake [3]: did not demonstrate any inhibition

CC(C)(C)NC(=O)[C@@H]1C[C@@H]2CCCC[C@@H]2CN1C[C@@H](O)[C@H](Cc1ccccc1)NC(=O)[C@H](CC(N)=O)NC(=O)c1ccc2ccccc2n1 [SQV, saquinavir, reference compound]
Effect on [^3H]Gly-Sar uptake [6]: did not demonstrate any significant inhibition

CC(C)[C@H](N)C(=O)N[C@H](C(=O)O[C@H](CN1C[C@H]2CCCC[C@H]2C[C@H]1C(=O)NC(C)(C)C)[C@H](Cc1ccccc1)NC(=O)[C@H](CC(N)=O)NC(=O)c1ccc2ccccc2n1)C(C)C [Val-Val-SQV, Val-Val-saquinavir]
Half-life (t1/2) in DPBS, pH 5 [4]: 94.8±21.4 h
Half-life (t1/2) in DPBS, pH 7.4 [4]: 18.3±1.4 h
Concentration at which the prodrug saturates P-gp [5]: 50 µM
Effect on [^3H]Gly-Sar uptake [6]: significantly decreased
Reduction of [^3H]Gly-Sar uptake [6]: 35%
Concentration dependence of inhibition of [^3H]Gly-Sar uptake [6]: concentration dependent inhibition
Efflux ratio (BL Papp/AP Papp) ([2]; MDCK-MDR1): 6
Half-life (t1/2) in MDCK-MDR1 cell homogenates [7]: 6.6 ± 0.56 h

C=C[C@H]1CN2CC[C@H]1C[C@@H]2[C@@H](OC(=O)[C@@H](NC(=O)[C@@H](N)C(C)C)C(C)C)c1ccnc2ccc(OC)cc12 [Val-Val-Q, Val-Val-Quinidine]
Inhibition of [^3H]Gly-Sar uptake [3]: concentration dependent inhibition

CN(CC(=O)O)C(=O)CN [Gly-Sar, Glycyl-Sarcosine] (H-Gly-[Sar]-OH)
Reduction of [^3H]Gly-Sar uptake ([3]; 1 mM unlabeled Gly-Sar): 20%
Uptake of [^3H]Gly-Sar ([3]; 1 mM unlabeled Gly-Sar): 0.026 pmol/min/mg
Reduction of [^3H]Gly-Sar uptake ([3]; 2 mM unlabeled Gly-Sar): 41%
Uptake of [^3H]Gly-Sar ([3]; 2 mM unlabeled Gly-Sar): 0.019 pmol/min/mg
Concentration dependence of [^3H]Gly-Sar cellular accumulation ([3]; unlabeled Gly-Sar 1 mM and 2 mM): concentration dependent decrease; also recorded: concentration dependent reduction
